The source of these data is BindingDB's records for doi:10.1016/s0960-894x(01)00635-7 (Instituto De Química Médica (Csic), 2001).

As a reminder, the EC50 is the concentration needed to bring the measured effect to its halfway point.

One experiment is described as follows: The compound was evaluated for inhibition of HIV-1 mutant […] recombinant reverse transcriptase.
On to `Cc1cn([C@@H]2O[C@H](CO)[C@@H](O)[C@H]2O[Si](C)(C)C(C)(C)C)c(=O)n(CC(=O)OCc2ccccc2)c1=O`, for which the EC50 was determined as 4 µM.

With `Cc1cn([C@@H]2O[C@H](CO[Si](C)(C)C(C)(C)C)[C@@H](O[Si](C)(C)C(C)(C)C)[C@H]2O[Si](C)(C)C(C)(C)C)c(=O)n(CC(=O)OCc2ccccc2)c1=O`, the EC50 is more than 10 µM.

As to `Cc1cn([C@@H]2O[C@H](CO[Si](C)(C)C(C)(C)C)[C@@H](O[Si](C)(C)C(C)(C)C)[C@H]2O[Si](C)(C)C(C)(C)C)c(=O)n(CC(=O)O)c1=O`, the EC50 was 32 µM.

With `Cc1cn([C@@H]2O[C@H](CO[Si](C)(C)C(C)(C)C)[C@@H](O)[C@H]2O[Si](C)(C)C(C)(C)C)c(=O)n(CC(=O)O)c1=O`, the EC50 worked out at 4.5 µM.

Regarding `Cc1cn([C@@H]2O[C@H](CO[Si](C)(C)C(C)(C)C)[C@@H](O[Si](C)(C)C(C)(C)C)[C@H]2O)c(=O)n(CC(=O)OCc2ccccc2)c1=O`, the EC50 was more than 50 µM.

Consider `Cc1cn(C2OC(CO[Si](C)(C)C(C)(C)C)CC2O[Si](C)(C)C(C)(C)C)c(=O)n(CC(=O)O)c1=O` (stereo unspecified) [{3-[3-(tert-Butyl-dimethyl-silanyloxy)-5-(tert-butyl-dimethyl-silanyloxymethyl)-tetrahydro-furan-2-yl]-5-methyl-2,6-dioxo-3,6-dihydro-2H-pyrimidin-1-yl}-acetic acid], for which the EC50 amounted to 4.5 µM.

Consider `Cc1cn(C2CCC(CO[Si](C)(C)C(C)(C)C)O2)c(=O)n(CC(=O)OCc2ccccc2)c1=O` (stereo unspecified), for which the EC50 is more than 250 µM.

Consider `Cc1cn([C@@H]2O[C@H](CO)[C@@H](O)[C@H]2O[Si](C)(C)C(C)(C)C)c(=O)n(CC(=O)O)c1=O`, for which the EC50 stood at 20 µM.

Regarding `Cc1cn([C@H]2C[C@H](O[Si](C)(C)C(C)(C)C)[C@@H](CO[Si](C)(C)C(C)(C)C)O2)c(=O)n(CC(=O)O)c1=O`, the EC50 was found to be 5 µM.

Take `Cc1cn(C2O[C@H](CO[Si](C)(C)C(C)(C)C)[C@@H](O)[C@H]2O)c(=O)n(CC(=O)O)c1=O` (stereo partly specified): the EC50 worked out at 117 µM.

A further experiment can be described thus: Effective concentration required to inhibit HIV-1 induced cytopathicity by 50% in CEM cells. In general terms: Protection from cytopathic effect is a common read-out in antiviral testing.
In turn, `Cc1cn([C@@H]2O[C@H](CO[Si](C)(C)C(C)(C)C)[C@@H](O[Si](C)(C)C(C)(C)C)[C@H]2O)c(=O)n(CC(=O)O)c1=O` [{3-[4-(tert-Butyl-dimethyl-silanyloxy)-5-(tert-butyl-dimethyl-silanyloxymethyl)-3-hydroxy-tetrahydro-furan-2-yl]-5-methyl-2,6-dioxo-3,6-dihydro-2H-pyrimidin-1-yl}-acetic acid] registered an EC50 of 1.8 µM.
